Results on one compound are retold here after patent US11827663B2, “Use of UAP inhibitors to inhibit flux through the hexosamine biosynthetic pathway” (The Johns Hopkins University, priority 2014, dated 2023).

Type in all cases: cell-based
The subject of data set [1] is primary glioblastoma line GS1049. Briefly: Cell count of primary glioblastoma line GS1049. Conditions: 48 h incubation, cell counting normalized to untreated controls; read-out: Estimated IC50 values, GS 1049. The procedure: FIG. 7A depicts the results of primary glioblastoma lines 612 and GS1049 after incubation for 48 h with Ac4Glc2Bz followed by cell counting and normalization to untreated controls. The data is log transformed to easily determine IC50 values. FIG. 7B and FIG. 7C depict the measurement of proliferation of the primary glioblastoma lines after 48 h incubation with Ac4Glc2Bz using a MTT assay.
(§1) Cells were incubated at a range of concentrations of the UAP inhibitors (typically at 0, 10, 25, 50, 100, and 150 μM) and the number of cells were quantified, typically by automated counting (e.g., with a Coulter Counter Z2 instrument) after 1, 2, 3, or 5 days of exposure.

Data set [2] deals with primary human adipose stem cells (hASCs). As to the kind of experiment: Cell count assay in control cells (human ASCs). The source says:
FIG. 4A and FIG. 4B depict histogram results of cell count assays after two days of exposure to each analog in cancer cell lines (SW1990 and PANC-1) and in control cells (human ASCs). […] In all cases, IC50 values were greater than 300 which is the highest concentration tested, for the ACSs, while the Ac4Glc2Bz analogs and Ac4Gal2Bz analogs were effective to reduce cell numbers in both cancer cell lines.

In another data set the test system is SW1990 cells. Briefly: Cell count / cell proliferation assay in SW1990 cells. Conditions: for IC50: Homo sapiens. The procedure: FIG. 3 depicts the result of cell count assays after two days of incubation with an exemplary compound, Ac4Glc2Bz. The cells treated with the compound are, respectively, SW1990 and PANC-1, which are pancreatic cancer cell lines. Meanwhile, control samples were treated with solvent vehicle of 2.5 μL DMSO per 1 mL of medium.
(§2) FIGS. 5A and 5B show the results of cell toxicity experiments that were conducted on SW1990 and PANC-1 cells with the analogs indicated. Cells were counted after incubation with each analog for 48 hours. Cell counts were then normalized to controls, data was log transformed, and IC50 values were calculated. […]
as §1

For another data set, the system named is c-MYC. As to the kind of experiment: Western blot of c-MYC. Particulars: SW1990, PANC-1, 612 and GS1049 cells, 125 μM or 250 μM. The procedure:
Proteins from treated cells were obtained by lysing cells in RIPA buffer (SIGMA) supplemented with Protease Inhibitor Cocktail (1:100), Phosphatase Inhibitor Cocktail 2 (SIGMA) (1:100), and Phosphatase Inhibitor Cocktail 3 (SIGMA)(1:100). SDS-PAGE was performed followed by western blotting for c-MYC (Cell Signaling) and β-actin (SIGMA).

Data set [3] deals with UDP-Glc/GalNAc (HexNAc), product of UAP1/2. As to the kind of experiment: Targeted metabolomics, LC-MS/MS of UDP-HexNAc in 612 cells. The procedure: FIGS. 16A-16B show exemplary targeted metabolomics results from primary glioblastoma cells. […] (n=3, with error bars representing SEM;* indicates p<0.05)
In FIGS. 16A-16B, representative targeted metabolomics results from primary glioblastoma cells were quantitated using LC-MS/MS traces. For example, the 612 cells were treated with 50 μM or 100 μM of Ac4Glc2Bz or non-treated (control). Afterwards, the cell extracts were obtained using Bligh-Dyer extraction and the extracts were analyzed using LC-MS/MS. Twelve 150-mm tissue culture plates were coated with lamin (1 ug/cm^2) in PBS for 24 h. 5×10^6 612 cells were seed onto each plate in 20 mL of media for condition tested: DMSO vehicle control (2 plates) (matched to the volume of vehicle used for the 100 μM condition), 50 μM (4 plates), 100 μM (6 plates). Ater 48 h, the plates were cooled for 10 minutes on ice followed by aspiration of the media. The plates were then tilted at 30° for 30 seconds and any remaining media was removed. Plates were washed twice with 10 mL of ice cold PBS (calcium and magnesium ion free). Next, the plates were covered and chilled with dry ice for 10 minutes to completely freeze all of the cells. While freezing the cells, a solution of methanol:H2O (2:0.8) was made and chilled in an isopropyl alcohol-dry ice bath. The plates were transferred to wet ice and 500 μL of the MeOH:H2O solution was added to the plates. Cells were scraped and the were transferred to a 15 mL tube. 500 μL more of the methanol:H2O solution was added again, and any remaining cells were scraped off the plates and were transferred to the 15 mL tubes. Samples, while remaining cold, were sonicated 2-5 times for 1 s and 1 part of chloroform was added to produce a ration of 1:2:0.8 (CHCl3:MeOH:H2O). Samples were briefly vortexed while still cold and 1 part of H2O was added followed by vortexing. […] DNA quantity from the interphase disc was determined using a fluorescent assay (SIGMA). […] The aqeuous layers were combined after normazling reconstitutions to the quantities of DNA obtained for each condition tested. […]

For a further data set, the system named is PANC-1 cells. Briefly: Cell count / cell proliferation assay in PANC-1 cells. Conditions: Homo sapiens. The procedure:
as §2, §1

Entries after “also recorded” stand apart in the source; their conditions may differ. Read-outs that look alike come from different tables or passages of the source. Bounds are passed on as bounds.

Regarding `CC(=O)OCC1OC(OC(C)=O)[C@@H](NC(=O)c2ccccc2)[C@@H](OC(C)=O)[C@@H]1OC(C)=O` (stereo partly shown) [Ac4Glc2Bz], the IC50 was 88.8 ± 1.8 µM in data set [1]; over 300 µM in data set [2] (Homo sapiens, 48 h, two days of exposure, 300 is the highest concentration tested); about 50 µM in the data set on SW1990 cells (SW1990, 48 h, cell count after two days of incubation, FIG. 3, read-out: IC50 of reduction of cell numbers, SW1990); 25.8 ± 1.5 µM with SW1990 cells (SW1990, cells counted after 48 hours incubation, normalized to controls, read-out: Estimated IC50 values, SW1990); about 50 µM with PANC-1 cells (PANC-1, 48 h, cell count after two days of incubation, FIG. 3, read-out: IC50 of reduction of cell numbers, PANC-1); about 45 µM in the data set with PANC-1 cells (PANC-1, FIG. 5B, read-out: IC50 of PANC-1 cell proliferation). In addition, the IC50 in the data set with PANC-1 cells (PANC-1, cells counted after 48 hours incubation, normalized to controls, read-out: Estimated IC50 values, PANC-1) is 45.5 ± 1.2 µM. The “cytotoxicity / inhibition of normal ASCs” value in data set [2] (normal cells) is recorded as “minimally inhibits”. For the same compound, the “effect on SW1990 cell numbers / proliferation” value in the data set on SW1990 cells (in words) is given as “lowest IC50 value”. The c-MYC expression result with c-MYC is “reduce c-MYC expression in a dose-dependent manner; also recorded: altered”. Moreover, the “LC-MS/MS peaks for UDP-HexNAc in treated cell extracts” value in data set [3] (612 cells, 50 μM or 100 μM, 48 h) is recorded as “substantially lower”. Also, the “reduction of quantitized amount of UDP-HexNAc, particularly UDP-GlcNAc, vs non-treated cell” value in data set [3] (612 cells, 50 μM, 48 h) is recorded as about 4 fold. Also, the “residual level of UDP-GlcNAc” value in data set [3] (printed as shown in FIGS. 18A-18B) was “about 25%”.
